Assay results reported in publication PMC10823224, “γδ T cell antigen receptor polyspecificity enables T cell responses to a broad range of immune challenges” (Proceedings of the National Academy of Sciences of the …, 2024).

Biological target: T1, human recombinant TG2 (Homo sapiens, UniProt P21980)
T1 construct: gene TGM2; recombinant, enzymatically active
T1 sequence (P21980 2-687): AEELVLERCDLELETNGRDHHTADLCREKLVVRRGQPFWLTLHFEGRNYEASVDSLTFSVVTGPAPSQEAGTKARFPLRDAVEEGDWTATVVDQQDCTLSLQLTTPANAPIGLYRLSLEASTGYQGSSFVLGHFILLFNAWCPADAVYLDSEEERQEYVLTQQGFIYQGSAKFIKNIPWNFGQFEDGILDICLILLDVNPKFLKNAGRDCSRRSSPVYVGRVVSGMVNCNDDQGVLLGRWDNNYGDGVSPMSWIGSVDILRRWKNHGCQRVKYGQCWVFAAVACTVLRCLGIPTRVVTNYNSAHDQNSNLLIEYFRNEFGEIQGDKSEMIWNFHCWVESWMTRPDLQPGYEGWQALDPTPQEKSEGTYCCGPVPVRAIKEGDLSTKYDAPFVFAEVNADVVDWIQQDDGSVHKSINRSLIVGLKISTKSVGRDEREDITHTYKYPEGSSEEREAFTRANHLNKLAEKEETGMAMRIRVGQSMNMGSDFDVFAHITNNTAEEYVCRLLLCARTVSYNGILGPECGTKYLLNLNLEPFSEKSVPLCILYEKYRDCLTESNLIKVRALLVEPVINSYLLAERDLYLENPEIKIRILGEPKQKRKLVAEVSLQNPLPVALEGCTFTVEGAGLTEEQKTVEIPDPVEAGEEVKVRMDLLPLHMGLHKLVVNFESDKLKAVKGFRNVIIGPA
Assay: in vitro serotonylation of Rac1 peptide, ESI-MS
Format: biochemical
Conditions: 1 mM serotonin, biotinylated Rac1 peptide co-substrate, 10 mM CaCl2, pH 7.4, 37 °C overnight

NCCc1c[nH]c2ccc(O)cc12 [5-HT]
in vitro serotonylation of Rac1 peptide, ESI-MS: the peptide was modified with a single serotonin moiety
